Where two headings read alike, the source gives them in different places.
Key:
PanC1 = test: Cell proliferation assay, Alamar Blue, PanC1; assay type: cell-based; conditions: Homo sapiens, PANC-1; Table 19b; read-out: IC50 PanC1
Experimental: (§1) A representative cell-proliferation assay protocol using Alamar Blue dye (stored at 4° C., use 20 ul per well) is described hereafter.
(§2) c. Plate 4,000-5,000 cells per well in 100 μl of medium and seed into a 96-well plate according to the following plate layout. Add cell culture medium only to wells B10 to B12. Wells B1 to B9 have cells but no compound added.
(§3) d. Add 100 μl of 2× drug dilution to each well in a concentration shown in the plate layout above. At the same time, add 100 μl of media into the control wells (wells B10 to B12). Total volume is 200 μl/well.
(§4) e. Incubate four (4) days at 37° C., 5% CO2 in a humidified incubator.
(§5) f. Add 20 μl Alamar Blue reagent to each well.
(§6) g. Incubate for four (4) hours at 37° C., 5% CO2 in a humidified incubator.
(§7) h. Record fluorescence at an excitation wavelength of 544 nm and emission wavelength of 590 nm using a microplate reader.
(§8) In the assays, cells are cultured with a test compound for approximately four days, the dye then is added to the cells and fluorescence of […] dye is detected after approximately four hours. Different types of cells can be utilized in the assays (e.g., HCT-116 human colorectal carcinoma cells, PC-3 human prostatic cancer cells and MiaPaca human pancreatic carcinoma cells). Anti-proliferative effects of representative compounds are provided hereafter.

BxPC3 = test: Cell proliferation assay, Alamar Blue, BxPC3; assay type: cell-based; conditions: Homo sapiens, BXPC-3
Experimental: as §2, §3, §4, §5, §6, §7, §8

[1] = system: MiaPaca human pancreatic carcinoma cells; test: Cell proliferation assay, Alamar Blue, MiaPaca; assay type: cell-based
Experimental: as §1, §2, §3, §4, §5, §6, §7, §8

HT29 = test: Cell proliferation assay, Alamar Blue, HT29; assay type: cell-based; conditions: Homo sapiens, HT-29
Experimental: as §2, §3, §4, §5, §6, §7, §8

A549 = test: Cell proliferation assay, Alamar Blue, A549; assay type: cell-based; conditions: Homo sapiens, Table 16
Experimental: as §2, §3, §4, §5, §6, §7, §8

[2] = system: PC-3 human prostatic cancer cells; test: Cell proliferation assay, Alamar Blue, PC-3; assay type: cell-based
Experimental: as §1, §2, §3, §4, §5, §6, §7, §8

[3] = system: HCT-116 human colorectal carcinoma cells; test: Cell proliferation assay, Alamar Blue, HCT-116; assay type: cell-based;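 further: cells exposed to compound for about 4 days, then Alamar Blue added and fluorescence read after about 4 h, medium-only wells as control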
Hs578T = test: Cell proliferation assay, Alamar Blue, Hs578T; assay type: cell-based; conditions: Homo sapiens, Hs-578T
H1299 = test: Cell proliferation assay, Alamar Blue, H1299; assay type: cell-based; conditions: Homo sapiens, NCI-H1299
Experimental: as §2, §3, §4, §5, §6, §7, §8

Jurkat = test: Cell proliferation assay, Alamar Blue, Jurkat; assay type: cell-based; conditions: Homo sapiens, Table 16;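 further: cells exposed to compound for about 4 days at 37 °C, then Alamar Blue added and fluorescence read after about 4 h, controls given medium without drug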
[4] = Pharmacokinetics in ICR mice after IV and PO dose; assay type: in vivo
[5] = HCT-116, Table 16, second HCT-116 column
[6] = HCT-116, Table 16, first HCT-116 column

SMILES	IC50 (PanC1)	IC50 (BxPC3; Table 19b)	IC50 ([1]; MIA PaCa-2, Table 16)	IC50 ([2]; Table 16, read-out: IC50 PC3)	IC50 (Hs578T; Table 16)	IC50 (H1299; Table 16)	other results
CCOc1ncc2c(n1)c(NC1CC1)nc1cc(C(=O)O)ccc12 [drawing 1266]	> 50 µM	48.9 µM					
O=C(O)c1ccc2c(c1)nc(NCc1ccccc1)c1ccncc12 [drawing 1218]	> 50 µM	> 50 µM					
NS(=O)(=O)c1cccc(Nc2nc3cc(C(=O)O)ccc3c3sccc23)c1			> 10 µM	44.9 µM	11 µM	9.9 µM	IC50 (HT29; Table 16): 4.6 µM; IC50 (A549): 7.6 µM; IC50 [3, 5]: > 10 µM
C#Cc1cccc(Nc2nc3cc(C(=O)O)ccc3c3sccc23)c1 [drawing 938]			> 10 µM	17.8 µM	9.96 µM	16.9 µM	IC50 (HT29; Table 16): 23.1 µM; IC50 (A549): 27.7 µM
O=C(O)c1ccc2c(c1)nc(NC1CC1)c1ccncc12 [drawing 1290]	> 50 µM	49 µM					
CNC(=O)c1cccc(Nc2nc3cc(-c4nnn[nH]4)ccc3c3sccc23)c1			> 10 µM	2.79 µM	3.01 µM	4.01 µM	IC50 (Jurkat): 4.22 µM; IC50 [3, 5]: > 10 µM
Fc1cccc(Nc2nc3cc(-c4nnn[nH]4)ccc3c3sccc23)c1			9.55 µM	2.89 µM	3.37 µM	3.05 µM	
O=C(O)c1ccc2c(c1)nc(NCCc1ccccc1)c1ccncc12 [drawing 1206]							IC50 (HT29; Table 19b): 46.9 µM
O=C(NC1CC1)c1cccc(Nc2nc3cc(-c4nnn[nH]4)ccc3c3sccc23)c1			3.18 µM	5.31 µM	7.79 µM	12.7 µM	IC50 (HT29; Table 16): 3.22 µM; IC50 (A549): 4.49 µM; IC50 (Jurkat): 6.97 µM; IC50 [3, 5]: > 10 µM
Nc1ncc2c(n1)c(NC1CC1)nc1cc(C(=O)O)ccc12 [drawing 1295]	> 50 µM	43.8 µM					
O=C(O)c1ccc2c(c1)nc(Nc1ccccc1)c1ncsc12			> 10 µM	> 50 µM	> 50 µM	38.8 µM	IC50 (HT29; Table 16): > 50 µM; IC50 (A549): > 50 µM; IC50 (Jurkat): 7.43 µM; IC50 [3, 5]: > 10 µM
c1ccc(Nc2nc3cc(-c4nnn[nH]4)ccc3c3sccc23)cc1				20 µM	21.8 µM	11.7 µM	IC50 [3, 6]: > 10 µM
O=C(O)c1ccc2c(c1)nc(NC1CC1)c1nc(NCc3ccccc3)ncc12 [drawing 1268]	25.8 µM	10.9 µM					
O=C(O)c1ccc2c(c1)nc(NCc1cccnc1)c1nc(NC3CC3)ncc12 [drawing 1276]	> 50 µM	> 50 µM					
C#Cc1cccc(Nc2nc3cc(C(=O)O)ccc3c3cnc(NCC4CCCO4)nc23)c1 (stereo not drawn) [drawing 1256]	6.66 µM	1.2 µM					
N#Cc1cccc(Nc2nc3cc(C(=O)O)ccc3c3sccc23)c1			> 10 µM	> 50 µM	12.3 µM	19.1 µM	IC50 (HT29; Table 16): 16.6 µM; IC50 (A549): 16 µM
COC(=O)c1ccc2c(c1)nc(NC1CC1)c1nc(SCc3ccccc3Cl)ncc12 [drawing 1262]	3.48 µM	2.12 µM					
Clc1cccc(Nc2nc3cc(-c4nnn[nH]4)ccc3c3sccc23)c1			> 10 µM	12 µM	5.23 µM	15.2 µM	IC50 (Jurkat): 8.89 µM
O=C(O)c1ccc2c(c1)nc(NC1CC1)c1nc(Nc3ccccc3)ncc12 [drawing 1269]	4.02 µM	3.92 µM					
COC(=O)c1ccc2c(c1)nc(NC1CC1)c1nc(SC)ncc12 [drawing 1292]	> 50 µM	7.39 µM					
CN(C)CCNc1nc2cc(C(=O)O)ccc2c2cnc(NC3CC3)nc12 [drawing 1293]	> 50 µM	13 µM					
C#Cc1cccc(Nc2nc3cc(C(=O)O)ccc3c3cncnc23)c1 [drawing 1347]							Kel ([4]; PO, 24.5 mg/kg): 0.0594 h⁻¹; AUC(0-inf) ([4]; mouse, plasma, IV, 3.4 mg/kg): 4900 ng·h/mL; AUC(0-t) ([4]; mouse, plasma, IV, 3.4 mg/kg): 4810 ng·h/mL; Cmax ([4]; mouse, plasma, IV, 3.4 mg/kg): 4740 ng/mL; Vd ([4]; mouse, plasma, IV, 3.4 mg/kg): 4.9 L/kg; AUC(0-inf) ([4]; mouse, plasma, PO, 24.5 mg/kg): 10900 ng·h/mL; AUC(0-t) ([4]; mouse, plasma, PO, 24.5 mg/kg): 9120 ng·h/mL; Cmax ([4]; mouse, plasma, PO, 24.5 mg/kg): 1600 ng/mL; Tmax ([4]; mouse, plasma, PO, 24.5 mg/kg): 30 min

SMILES	IC50 (PanC1)	IC50 (BxPC3; Table 19b)	IC50 ([1]; MIA PaCa-2, Table 16)	IC50 ([2]; Table 16, read-out: IC50 PC3)	IC50 (Hs578T; Table 16)	IC50 (H1299; Table 16)	other results
O=C(O)c1ccc2c(c1)nc(Nc1ccc(F)c(Cl)c1)c1ncsc12			> 10 µM	> 50 µM	28.2 µM	41.8 µM	IC50 (HT29; Table 16): > 50 µM; IC50 (A549): > 50 µM; IC50 (Jurkat): 15.2 µM; IC50 [3, 5]: 15 µM
O=C(O)c1ccc2c(c1)nc(NCCc1cccc(Cl)c1)c1ccncc12 [drawing 1219]	28.1 µM	24.3 µM					IC50 (HT29; Table 19b): 34 µM
O=C(O)c1ccc2c(c1)nc(Nc1ccccc1)c1ccsc12			> 10 µM	9.09 µM	6.38 µM	4.39 µM	IC50 (Jurkat): 6.12 µM; IC50 [3, 6]: > 10 µM; IC50 [3, 5]: > 10 µM
O=C(O)c1ccc2c(c1)nc(N1CCOCC1)c1nc(NC3CC3)ncc12 [drawing 1278]	> 50 µM	> 50 µM					
CNC(=O)c1cccc(Nc2nc3cc(C(=O)O)ccc3c3sccc23)c1			> 10 µM	26.7 µM	9.07 µM	13.8 µM	IC50 (HT29; Table 16): 3.56 µM; IC50 (A549): 6.94 µM; IC50 (Jurkat): 8.69 µM; IC50 [3, 5]: > 10 µM
C#Cc1cccc(Nc2nc3cc(C(=O)O)ccc3c3cnc(NCC4CC4)nc23)c1 [drawing 1257]	1.3 µM	0.82 µM					
CN(C)CCNc1nc2cc(C(=O)O)ccc2c2sccc12				> 50 µM	> 50 µM	8.9 µM	IC50 [3, 6]: > 10 µM
O=C(O)c1ccc2c(c1)nc(Nc1cccc(F)c1)c1ccsc12			7.28 µM	2.66 µM	8.67 µM	8.78 µM	IC50 (HT29; Table 16): 1.89 µM; IC50 (A549): 6.23 µM; IC50 (Jurkat): 5.93 µM; IC50 [3, 5]: > 10 µM
O=C(O)c1ccc2c(c1)nc(Nc1cncc(C3CC3)c1)c1ccncc12	> 50 µM	38.1 µM					
O=C(O)c1ccc2c(c1)nc(Nc1cccc(F)c1)c1ncsc12			> 10 µM	> 50 µM	> 50 µM	21.6 µM	IC50 (HT29; Table 16): > 50 µM; IC50 (A549): > 50 µM; IC50 (Jurkat): 40.2 µM; IC50 [3, 5]: 15 µM
O=C(O)c1ccc2c(c1)nc(NCCc1cccc(F)c1)c1ccncc12 [drawing 1220]	28.2 µM	3.29 µM					IC50 (HT29; Table 19b): 31.3 µM
Cc1cc(Nc2ncc3c(n2)c(Nc2ccc(F)c(Cl)c2)nc2cc(C(=O)O)ccc23)[nH]n1 [drawing 1286]	> 50 µM	> 50 µM					
O=C(O)c1ccc2c(c1)nc(Nc1cc(Cl)ccc1F)c1ccsc12			> 10 µM	> 50 µM		17.5 µM	IC50 (HT29; Table 16): > 50 µM; IC50 (A549): 31.1 µM; IC50 [3, 5]: > 10 µM
O=C(O)c1ccc2c(c1)nc(NCCc1ccccc1)c1ccncc12 [drawing 1007]							IC50 ([1]; MIA PaCa-2, Table 18): 5.08 µM; IC50 ([2]; Table 18, read-out: IC50 PC3): 23.6 µM; IC50 ([3]; HCT-116, Table 18): > 10 µM; IC50 (Hs578T; Table 18): 16.5 µM; IC50 (H1299; Table 18): 21 µM
c1ccc(Nc2nc3cc(-c4nnc[nH]4)ccc3c3sccc23)cc1				7.26 µM	5.5 µM	17.8 µM	IC50 (A549): 14.4 µM; IC50 (Jurkat): 6.26 µM; IC50 (BxPC3; Table 16): 1.97 µM; IC50 [3, 6]: 5 µM; IC50 [3, 5]: 7.6 µM
O=C(O)c1ccc2c(c1)nc(NC1CC1)c1nc(SCc3ccccc3Cl)ncc12 [drawing 1265]	> 50 µM	45.3 µM					
COc1cccc(Nc2nc3cc(C(=O)O)ccc3c3scnc23)c1			> 10 µM	> 50 µM	> 50 µM	18.5 µM	IC50 (HT29; Table 16): > 50 µM; IC50 (A549): > 50 µM; IC50 [3, 5]: > 10 µM
CC1CCCCN1CCCNc1ncc2c(n1)c(Nc1ccc(F)c(Cl)c1)nc1cc(C(=O)O)ccc12 (stereo not drawn) [drawing 1280]	10.5 µM	3.34 µM					
O=C(O)c1ccc2c(c1)nc(NCCCc1ccccc1)c1ccncc12 [drawing 1221]	34.4 µM	23.4 µM					IC50 (HT29; Table 19b): 16.4 µM
O=C(O)c1ccc2c(c1)nc(Nc1cccc(Cl)c1)c1ccsc12			9.82 µM	16.7 µM	9.7 µM	14.3 µM	IC50 (HT29; Table 16): 5.36 µM; IC50 (A549): 11.7 µM
O=C(O)c1ccc2c(c1)nc(NC1CC1)c1nc(NC3CC3)ncc12 [drawing 1267]	2.6 µM	2.59 µM					
CCCNc1ncc2c(n1)c(NC1CC1)nc1cc(C(=O)O)ccc12 [drawing 1296]	1.33 µM	5.58 µM					
